The results in this text go back to PubChem BioAssay (NCI).

Test systems include UACC-257 melanoma; HS 578T breast; SN12C renal; NCI-H460 lung; MDA-N; SNB-19 CNS; UACC-62 melanoma; A549 NSCLC; UO-31 renal; TK-10 renal; CAKI-1 renal; LOX IMVI melanoma.
Common to all, as to assay: DTP human tumour cell line panel, 48 h

Where “and” joins values, the source holds several entries; their conditions need not be identical. Equal entries are not always repeated.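 Cells were grown in 96-well plates and exposed to each compound for 48 hours at five concentrations; endpoints were interpolated linearly between bracketing concentrations, or set to the highest concentration if not reached. Abbreviation: GI50, concentration required for 50% inhibition of growth. TGI is the concentration that stops growth completely.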

In the case of `Cc1cc2nc3c(C#N)c4c(c(-c5ccc(Cl)cc5)n3c2cc1C)CCC4`, the TGI with UACC-257 melanoma was 41.4 µM; in the test on HS 578T breast, 47.9 µM; with SN12C renal it was 75.4 µM; in the test on NCI-H460 lung, above 100 µM; in the test with MDA-N it was 88 µM; in the test on SNB-19 CNS it was 37.8 µM. Also, the total growth inhibition concentration (TGI) in the test with UACC-62 melanoma is 33.9 µM; in the test with A549 NSCLC it was above 100 µM; in the test on UO-31 renal, 39.4 µM; with TK-10 renal, 60.5 µM; in the test on CAKI-1 renal, 42.9 µM; in the test on LOX IMVI melanoma it was 90.6 µM.

As for `CN(C)c1ccc(/C=C/c2sc3ccccc3[n+]2C)cc1`, the TGI with UACC-257 melanoma is 7.85 µM and 11.9 µM; in the test with HS 578T breast, 36.8 µM and 46.1 µM; in the test with SN12C renal, 7.6 µM and 15.7 µM; in the test on NCI-H460 lung, 5.28 µM and 7.85 µM; with MDA-N it was 7.36 µM; in the test with SNB-19 CNS, 14 µM and > 100 µM. For the same molecule, the TGI with UACC-62 melanoma was 17 µM and 5.87 µM; in the test on A549 NSCLC, 16.7 µM and 17.2 µM; in the test with TK-10 renal, 16 µM and 24.9 µM; with CAKI-1 renal, 13.2 µM and 11.6 µM; in the test with LOX IMVI melanoma, 6.87 µM and 3.34 µM. For the same molecule, the GI50 in the test on SN12C renal is 1.71 µM and 0.645 µM; with NCI-H460 lung it was 1.88 µM and 0.744 µM; in the test with UACC-62 melanoma, 3.87 µM and 1.48 µM; in the test on UO-31 renal, 2.91 µM; in the test on LOX IMVI melanoma, 2.34 µM and 1.11 µM.

Regarding `CCC(C)C1=C(O)[N+]2([O-])Oc3ccc(-c4c(O)c(O)c(-c5ccc(OC(C)=O)cc5)c(OC(C)=O)c4OC(C)=O)cc3OC2(C(C)CC)C(=O)N1O` (stereo unspecified), the total growth inhibition concentration (TGI) in the test with UACC-257 melanoma, with HS 578T breast, in the test on SN12C renal, with NCI-H460 lung, in the test with MDA-N and with SNB-19 CNS was above 50 µM each time. For the same molecule, the total growth inhibition concentration (TGI) in the test on UACC-62 melanoma, in the test with A549 NSCLC, in the test on UO-31 renal, with TK-10 renal, in the test with CAKI-1 renal and in the test on LOX IMVI melanoma was above 50 µM each time.

Consider `CC1(C)COC2=C(C1)C(=O)c1ccccc1C2=O`, for which the TGI turned out to be 2.11 µM with UACC-257 melanoma; 7.95 µM in the test on HS 578T breast; 2.76 µM with SN12C renal; 3.64 µM in the test on NCI-H460 lung; 0.325 µM in the test on MDA-N; 3.82 µM in the test on SNB-19 CNS. The total growth inhibition concentration (TGI) in the test with UACC-62 melanoma was 2.53 µM; in the test with A549 NSCLC it was 4.76 µM; in the test on UO-31 renal, 2.21 µM; in the test on TK-10 renal, 3.19 µM; in the test with CAKI-1 renal, 3.9 µM; in the test on LOX IMVI melanoma, 4.22 µM.

With `Cc1ccc2nc(-c3ccc(C(C)(C)C)cc3)oc(=O)c2c1`, the TGI in the test with UACC-257 melanoma is 46.2 µM; in the test on HS 578T breast it was 81.3 µM; in the test on SN12C renal, above 100 µM; in the test on NCI-H460 lung, 41.6 µM; with MDA-N, 67.5 µM; in the test on SNB-19 CNS it was 74.2 µM. For the same molecule, the total growth inhibition concentration (TGI) in the test with UACC-62 melanoma was 49.3 µM; in the test with A549 NSCLC it was above 100 µM; in the test with UO-31 renal it was 70 µM; with TK-10 renal it was above 100 µM; in the test with CAKI-1 renal, 39.6 µM; with LOX IMVI melanoma it was 32.3 µM.

As for `CCOC(=O)C1(C#N)CC1`, the concentration for total growth inhibition (TGI) in the test with UACC-257 melanoma, in the test on HS 578T breast, in the test on SN12C renal, in the test with NCI-H460 lung, in the test with MDA-N and in the test on SNB-19 CNS was above 100 µM in each case. For the same molecule, the TGI in the test with UACC-62 melanoma, in the test on A549 NSCLC, in the test with UO-31 renal, in the test on TK-10 renal, with CAKI-1 renal and in the test with LOX IMVI melanoma was above 100 µM throughout.

As to `COC1(CC[C@@H](C)COC2OC(CO)C(O)C(O)C2O)O[C@H]2C[C@H]3[C@@H]4CC=C5C[C@@H](OC6OC(CO)C(O)C(OC7OC(CO)C(O)C(O)C7O)C6OC6OC(C)C(O)C(O)C6O)CC[C@]5(C)[C@H]4CC[C@]3(C)[C@H]2[C@@H]1C` (stereo partly specified), the TGI in the test on UACC-257 melanoma was 26.3 µM; in the test with HS 578T breast it was 22.2 µM; in the test on SN12C renal, above 56 µM; in the test on NCI-H460 lung, 14.8 µM; with MDA-N it was 23.1 µM; in the test with SNB-19 CNS, 21.2 µM. For the same molecule, the TGI in the test with UACC-62 melanoma was above 35.7 µM; with A549 NSCLC, 9.36 µM; with UO-31 renal, 9.53 µM; in the test on TK-10 renal, 43.8 µM; with CAKI-1 renal it was 12 µM; in the test on LOX IMVI melanoma, 7.03 µM.

As to `COc1ccc(-c2c(-c3ccccc3)c(C)nc3nc(SC)nc(SC)c23)cc1OC`, the total growth inhibition concentration (TGI) in the test with UACC-257 melanoma is above 100 µM; with HS 578T breast it was 82.3 µM; with SN12C renal it was above 100 µM; in the test on NCI-H460 lung, 16.2 µM; in the test on MDA-N, above 100 µM; in the test with SNB-19 CNS, above 100 µM. Moreover, the TGI with UACC-62 melanoma was 39.7 µM; with A549 NSCLC it was above 100 µM; in the test on UO-31 renal, above 100 µM; with TK-10 renal it was above 100 µM; in the test on CAKI-1 renal, above 100 µM; in the test on LOX IMVI melanoma, 33.2 µM.

For `Nc1nc(Cl)c(Cl)c(NCC2(O)CCC2)n1`, the total growth inhibition concentration (TGI) in the test with UACC-257 melanoma, in the test on HS 578T breast, in the test with SN12C renal, with NCI-H460 lung, in the test on MDA-N and in the test with SNB-19 CNS was above 100 µM each time. Further, the concentration for total growth inhibition (TGI) in the test on UACC-62 melanoma was above 100 µM; with A549 NSCLC, above 100 µM; in the test on UO-31 renal, above 100 µM; with TK-10 renal, above 100 µM; in the test on CAKI-1 renal, 29.6 µM; in the test on LOX IMVI melanoma it was above 100 µM.

For `NCCN1C(=O)c2ccccc2C1c1ccc(Cl)cc1` (stereo unspecified), the TGI in the test with UACC-257 melanoma, in the test with HS 578T breast, with SN12C renal, in the test on NCI-H460 lung, in the test on MDA-N and with SNB-19 CNS was above 100 µM throughout. Besides, the total growth inhibition concentration (TGI) in the test on UACC-62 melanoma, in the test on A549 NSCLC, in the test with UO-31 renal, with TK-10 renal, with CAKI-1 renal and in the test on LOX IMVI melanoma was above 100 µM each time.

On to `CC(Oc1ccccc1)C(=O)NNC(=O)OC(C)(C)C` (stereo unspecified), for which the total growth inhibition concentration (TGI) in the test with UACC-257 melanoma, in the test on HS 578T breast, in the test on SN12C renal, in the test with NCI-H460 lung, with MDA-N and with SNB-19 CNS was above 100 µM each time. The TGI in the test on UACC-62 melanoma, in the test on A549 NSCLC, with UO-31 renal, with TK-10 renal, in the test on CAKI-1 renal and with LOX IMVI melanoma was above 100 µM each time.
